Experimental data: patent US20100105758A1 (Centre de Recherche Public de la Sante, priority 2006, published 2010)
Entries after “also recorded” stand apart in the source; their conditions may differ. One block for each compound: values may come before it.

How the values were obtained:
[1] = tested on: THP-1-derived macrophages; test: MMP-9 secretion by THP-1-derived macrophages, gelatin zymography and densitometry; type: cell-based; details: for MMP-9 secretion (zymography), modulators of Ado metabolism: added alone or in combination, Ado 10 μM, EHNA 10 μM, DIP 10 μM
Method: Cells were incubated for 15 min with increasing concentrations of Ado and 10 μM EHNA before differentiation with 150 nM PMA for 48 hours. […] Concentrations of 10 μM Ado and 10 μM EHNA were used in further experiments. […] FIG. 2. […] THP-1 cells were treated for 15 min with Ado and 10 μM EHNA or vehicle before differentiation to macrophages with 150 nM PMA for 48 hours. EHNA, which inhibits Ado deaminase, and DIP, which inhibits Ado transport, were used to enhance endogenous Ado concentration. Gelatinase activity was measured in cell-free conditioned medium by zymography and densitometry. A. A representative zymogram is shown. […] C. Time-course experiment. […] FIG. 3. […] A. THP-1 cells were treated for 15 min with 10 μM Ado and 10 μM EHNA or vehicle before differentiation to macrophages with 150 nM PMA for 48 hours. […] B. THP-1 cells were treated for 15 min with 0.1, 1 or 10 μM of Ado receptors agonists (CPA, A1-specific; CGS21680, A2a-specific; IB-MECA, A3-specific). […] Gelatinase activity was assessed in conditioned medium. […] C. […] Cells were transfected with siRNA specific for A2a, A2b or A3 Ado receptors, incubated for 48 hours to achieve down-regulation of Ado receptors expression, treated for 15 min with 10 μM Ado and 10 μM EHNA or vehicle before differentiation to macrophages with 150 nM PMA for 48 hours. Conditioned medium was analysed by gelatin zymography. […] Cell culture. All cell culture reagents were from Lonza (Verviers, Belgium) unless specified otherwise. Peripheral venous blood was obtained from healthy volunteers. Peripheral blood mononuclear cells were obtained by Ficoll gradient. Monocytes were purified by negative selection using the Monocyte Isolation Kit II (Myltenyi Biotec GmbH, Bergisch Gladbach, Germany). […] Macrophages were incubated for 15 minutes with Ado/EHNA (10 μmol/L) or vehicle, then LPS (100 ng/ml) or vehicle was added and cells were incubated for another 24 hours before harvesting. Cells from the monocyte-like line THP-1 (ATCC, LGC Promochem, Teddington, UK) were propagated at 37° C.-5% CO2 in RPMI 1640 medium supplemented with L-glutamine (2 mM), Penicillin (100 Units/ml), Streptomycin (100 μg/ml), non-essential amino acids solution (1 μM), sodium pyruvate (1 mM), and 10% heat-inactivated fetal calf serum (FCS) (Eurobio, Les Ulys, France). For experiments, FCS in culture medium was reduced to 1%. Cells were treated for 15 min with EHNA vehicle (DMSO), Ado (0.01 to 100 μM), Ado receptors agonists (0.1 to 10 μM), EHNA (10 μM) or Dipyridamole (DIP) (10 μM). Cells were then differentiated into macrophages with 150 nM phorbol myristate actetate (PMA) for 24 hours. Macrophages were subsequently treated with LPS (1 to 1000 ng/ml), fMLP (10^−7 M) or H2O2 (10 mM) for another 24 hours. Analysis of gelatinase activity. Gelatin zymography was performed on culture supernatants to assess secreted MMP-9 activity. Briefly, conditioned medium was loaded on SDS-polyacrylamide gels containing 0.2% gelatin under non reducing conditions. After electrophoresis, gels were washed and incubated overnight at 37° C. in assay buffer (50 mM Tris-HCl, pH 7.6, 200 mM NaCl, 5 mM CaCl2, and 0.02% Brij35). Subsequently, gels were stained in 0.1% Coomassie Blue and destained in 25% ethanol/8% acetic acid. Densitometry was achieved using the Gel Logic 2200 Digital Imaging system and Aida Software (Kodak, Zavemtem, Belgium).

THP-1 monocytes = test: Migration assay, modified Boyden chamber coated with gelatin B, MCP-1 gradient; type: cell-based; details: for inhibition of Ado-enhanced cell migration: pre-incubation with TIMP-1 10 ng/mL or GM6001 10 nM or 1 μM
Method: Infiltration of monocytes/macrophages into the myocardium is a hallmark of ventricular remodelling post MI. Cell migration is facilitated by degradation of the ECM by MMP-9. We therefore tested whether the increase in MMP-9 secretion by Ado could improve monocytes migration along a gradient of MCP-1. For this purpose, the top of a modified Boyden chamber was coated with gelatin B and MCP-1 was added in the bottom compartment. Monocytes were treated with Ado before seeding on the microporous membrane of the chamber. […] This effect was inhibited by the synthetic MMP inhibitor GM6001 and the endogenous MMP-9 inhibitor TIMP-1 (FIG. 4).
FIG. 4. Ado increases monocytes migratory capacity. THP-1 monocytes were treated for 24 hours with 10 μM Ado and 10 μM EHNA or vehicle before seeding on the microporous membrane of a modified Boyden chamber pre-coated with gelatin B. 10 ng/mL MCP-1 was added in the bottom compartment. When specified, cells were pre-incubated with TIMP-1 (10 ng/mL) or GM6001 (10 nM or 1 μM) before seeding on the membrane. Cell migration was quantified by fluorescence after 24 hours. […] Results are mean±SD (n=5). * P<0.05 vs no Ado.
Migration assay. Migratory capacity of THP-1 monocytes was studied using a Transwell® system with polycarbonate microporous membranes (5 μm pore size, 24-well chamber, Costar, Lowell, USA). Membranes were coated with a 2% gelatin B solution and allowed to dry at room temperature for 2 hours. MCP-1 (10 ng/mL) was added in the bottom compartment. THP-1 monocytes were cultured in serum- and antibiotic-free medium with or without 10 μM Ado and 10 μM EHNA for 24 hours. Cells were pre-incubated for 30 min with GM 6001 (10 nM or 1 μM) or TIMP-1 (10 ng/mL) before seeding into the upper compartment at a concentration of 7.5×10^4 cells per well. After 24 hours, cells that migrated through the membrane were detached, lysed and stained by the CyQuant GR® dye (Invitrogen) for 15 min. Fluorescence was read with a POLARstar Optima (BMG LABTECH, Champigny-sur-Marne, France) microplate reader (Xex=492 nm, kem=520 nm).

MMPs = details: given 24-72 hours post MI; cited from earlier work
[2] = tested on: THP-1-derived macrophages; test: MMP-9 mRNA expression in THP-1-derived macrophages, quantitative PCR; type: cell-based; details: THP-1 cells, after 48 hours of differentiation
Method: FIG. 2. […] THP-1 cells were treated for 15 min with Ado and 10 μM EHNA or vehicle before differentiation to macrophages with 150 nM PMA for 48 hours. EHNA, which inhibits Ado deaminase, and DIP, which inhibits Ado transport, were used to enhance endogenous Ado concentration. Gelatinase activity was measured in cell-free conditioned medium by zymography and densitometry. A. A representative zymogram is shown. […] C. Time-course experiment.
Cell culture. All cell culture reagents were from Lonza (Verviers, Belgium) unless specified otherwise. Peripheral venous blood was obtained from healthy volunteers. Peripheral blood mononuclear cells were obtained by Ficoll gradient. Monocytes were purified by negative selection using the Monocyte Isolation Kit II (Myltenyi Biotec GmbH, Bergisch Gladbach, Germany). […] Macrophages were incubated for 15 minutes with Ado/EHNA (10 μmol/L) or vehicle, then LPS (100 ng/ml) or vehicle was added and cells were incubated for another 24 hours before harvesting. Cells from the monocyte-like line THP-1 (ATCC, LGC Promochem, Teddington, UK) were propagated at 37° C.-5% CO2 in RPMI 1640 medium supplemented with L-glutamine (2 mM), Penicillin (100 Units/ml), Streptomycin (100 μg/ml), non-essential amino acids solution (1 μM), sodium pyruvate (1 mM), and 10% heat-inactivated fetal calf serum (FCS) (Eurobio, Les Ulys, France). […]
(§1) Real time quantitative PCR.

[3] = tested on: primary human macrophages; test: MMP-9 mRNA expression in primary macrophages, quantitative PCR; type: cell-based; details: Ado and EHNA 10 μmol/L each, 24 hours
Method: Cell culture. All cell culture reagents were from Lonza (Verviers, Belgium) unless specified otherwise. Peripheral venous blood was obtained from healthy volunteers. Peripheral blood mononuclear cells were obtained by Ficoll gradient. Monocytes were purified by negative selection using the Monocyte Isolation Kit II (Myltenyi Biotec GmbH, Bergisch Gladbach, Germany). […] Macrophages were incubated for 15 minutes with Ado/EHNA (10 μmol/L) or vehicle, then LPS (100 ng/ml) or vehicle was added and cells were incubated for another 24 hours before harvesting. Cells from the monocyte-like line THP-1 (ATCC, LGC Promochem, Teddington, UK) were propagated at 37° C.-5% CO2 in RPMI 1640 medium supplemented with L-glutamine (2 mM), Penicillin (100 Units/ml), Streptomycin (100 μg/ml), non-essential amino acids solution (1 μM), sodium pyruvate (1 mM), and 10% heat-inactivated fetal calf serum (FCS) (Eurobio, Les Ulys, France). For experiments, FCS in culture medium was reduced to 1%. Cells were treated for 15 min with EHNA vehicle (DMSO), Ado (0.01 to 100 μM), Ado receptors agonists (0.1 to 10 μM), EHNA (10 μM) or Dipyridamole (DIP) (10 μM). Cells were then differentiated into macrophages with 150 nM phorbol myristate actetate (PMA) for 24 hours. Macrophages were subsequently treated with LPS (1 to 1000 ng/ml), fMLP (10^−7 M) or H2O2 (10 mM) for another 24 hours.
as §1

[4] = tested on: THP-1-derived macrophages; test: Ado receptor mRNA expression in THP-1-derived macrophages, quantitative PCR; type: cell-based; details: 10 μM Ado and 10 μM EHNA, PMA 48 hours
Method: FIG. 3. […] A. THP-1 cells were treated for 15 min with 10 μM Ado and 10 μM EHNA or vehicle before differentiation to macrophages with 150 nM PMA for 48 hours. […] B. THP-1 cells were treated for 15 min with 0.1, 1 or 10 μM of Ado receptors agonists (CPA, A1-specific; CGS21680, A2a-specific; IB-MECA, A3-specific). […] Gelatinase activity was assessed in conditioned medium. […] C. […] Cells were transfected with siRNA specific for A2a, A2b or A3 Ado receptors, incubated for 48 hours to achieve down-regulation of Ado receptors expression, treated for 15 min with 10 μM Ado and 10 μM EHNA or vehicle before differentiation to macrophages with 150 nM PMA for 48 hours. Conditioned medium was analysed by gelatin zymography.
Cell culture. All cell culture reagents were from Lonza (Verviers, Belgium) unless specified otherwise. Peripheral venous blood was obtained from healthy volunteers. Peripheral blood mononuclear cells were obtained by Ficoll gradient. Monocytes were purified by negative selection using the Monocyte Isolation Kit II (Myltenyi Biotec GmbH, Bergisch Gladbach, Germany). […] Macrophages were incubated for 15 minutes with Ado/EHNA (10 μmol/L) or vehicle, then LPS (100 ng/ml) or vehicle was added and cells were incubated for another 24 hours before harvesting. […]
as §1

[5] = in combination with lidocaine or primary angioplasty; cited from earlier work
[6] = tested on: primary human macrophages; test: MMP-9 secretion by primary macrophages, ELISA in conditioned medium; type: cell-based; details: Ado and EHNA 10 μmol/L each, 15 min then 24 hours, with or without LPS 100 ng/ml
Method: FIG. 1. […] Cell culture. All cell culture reagents were from Lonza (Verviers, Belgium) unless specified otherwise. Peripheral venous blood was obtained from healthy volunteers. Peripheral blood mononuclear cells were obtained by Ficoll gradient. Monocytes were purified by negative selection using the Monocyte Isolation Kit II (Myltenyi Biotec GmbH, Bergisch Gladbach, Germany). […] Macrophages were incubated for 15 minutes with Ado/EHNA (10 μmol/L) or vehicle, then LPS (100 ng/ml) or vehicle was added and cells were incubated for another 24 hours before harvesting. Cells from the monocyte-like line THP-1 (ATCC, LGC Promochem, Teddington, UK) were propagated at 37° C.-5% CO2 in RPMI 1640 medium supplemented with L-glutamine (2 mM), Penicillin (100 Units/ml), Streptomycin (100 μg/ml), non-essential amino acids solution (1 μM), sodium pyruvate (1 mM), and 10% heat-inactivated fetal calf serum (FCS) (Eurobio, Les Ulys, France). For experiments, FCS in culture medium was reduced to 1%. Cells were treated for 15 min with EHNA vehicle (DMSO), Ado (0.01 to 100 μM), Ado receptors agonists (0.1 to 10 μM), EHNA (10 μM) or Dipyridamole (DIP) (10 μM). Cells were then differentiated into macrophages with 150 nM phorbol myristate actetate (PMA) for 24 hours. Macrophages were subsequently treated with LPS (1 to 1000 ng/ml), fMLP (10^−7 M) or H2O2 (10 mM) for another 24 hours. […] ELISA.

neutrophils = details: through A2a receptor; cited from earlier work

Compound: CCCCCC[C@@H]([C@@H](C)O)n1cnc2c(N)ncnc21 (racemic) [EHNA]
MMP-9 secretion (zymography), modulators of Ado metabolism ([1]; PMA 48 hours): triggered MMP-9 secretion

Compound: OCCN(CCO)c1nc(N2CCCCC2)c2nc(N(CCO)CCO)nc(N3CCCCC3)c2n1 [DIP, Dipyridamole]
MMP-9 secretion (zymography), modulators of Ado metabolism ([1]; PMA 48 hours): triggered MMP-9 secretion

Compound: CNC(=O)[C@H](Cc1c[nH]c2ccccc12)NC(=O)[C@@H](CC(=O)NO)CC(C)C [GM6001, (R)-N-4-Hydroxy-N1-[(S)-2-(1H-indol-3-yl)-1-methylcarbamoly-ethyl]-2-isobutyl-succinamide]
inhibition of Ado-enhanced cell migration (THP-1 monocytes): partly prevented; also recorded: inhibited

Compound: CNC(=O)[C@H]1O[C@@H](n2cnc3c(NCc4cccc(I)c4)ncnc32)[C@H](O)[C@@H]1O [IB-MECA, 1-deoxy-1-[6-[[(3-iodophenyl)methyl]amino]-9H-purine-9-yl]-N-methyl-Dribofuranuronamide]
MMP-9 secretion with Ado receptor agonists ([1]; 0.1, 1 or 10 μM agonist for 15 min, EHNA omitted, PMA 48 hours): increase MMP-9 secretion to the same extent as Ado

Compound: COc1ccc(C(=O)Nc2ccc(S(=O)(=O)NC(CC#CCN3CCOCC3)C(=O)O)cc2)cc1 (stereo not shown) [PG-116800]
outcome after MI (MMPs): did not improve outcome | prevention of LV remodelling after MI (MMPs): failed to prevent LV remodelling

A2b receptor expression (mRNA) [4]: more than two-fold increase | A3 receptor expression (mRNA) [4]: more than two-fold increase
Compound: Nc1ncnc2c1ncn2[C@@H]1O[C@H](CO)[C@@H](O)[C@H]1O [adenosine]
MMP-9 mRNA expression [2]: more than two-fold increase | MMP-9 mRNA expression [3]: increased | increase of MMP-9 production ([1]; 100 μM Ado with 10 μM EHNA, 15 min before differentiation with 150 nM PMA for 48 hours): 3 fold | MMP-9 secretion (zymography), modulators of Ado metabolism ([1]; PMA 48 hours): triggered MMP-9 secretion | incubation period necessary to reproduce the effect of Ado on MMP-9 ([1]; time-course experiment, zymography of culture medium): at least 18 hours | cell migration through the gelatin layer (THP-1 monocytes; 10 μM Ado and 10 μM EHNA for 24 hours, MCP-1 10 ng/mL, migration after 24 hours): enhanced cell migration | cardiac function of patients with MI [5]: improved cardiac function | MMP-9 secretion in cell supernatant as measured by ELISA [6]: mild but significant increase | MMP-9 secretion in cell supernatant as measured by ELISA ([6]; listed as Ado): significantly increased | MMP-9 secretion by neutrophils (neutrophils): inhibits MMP-9 secretion

Compound: TIMP-1: recombinant human protein TIMP-1 (R&D Systems), endogenous MMP-9 inhibitor
inhibition of Ado-enhanced cell migration (THP-1 monocytes): partly prevented; also recorded: inhibited
